Experimental data reported in PubChem BioAssay (NCI).
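Values below derive from 48-hour exposures of cells grown in 96-well plates, with endpoints linearly interpolated between the two concentrations bracketing the appropriate inhibition level. GI50: concentration for 50% inhibition of growth. TGI: concentration producing complete growth inhibition.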

Columns and labels:
Test in all cases: inhibition of tumour cell growth, NCI panel, 48 h
CAKI-1 renal = system: CAKI-1 renal
NCI-H460 lung = system: NCI-H460 lung
UACC-257 melanoma = system: UACC-257 melanoma
NCI-H23 lung = system: NCI-H23 lung
ACHN renal = system: ACHN renal
SK-MEL-28 melanoma = system: SK-MEL-28 melanoma
MCF7 breast = system: MCF7 breast
DU-145 prostate = system: DU-145 prostate
MDA-MB-435 = system: MDA-MB-435
T-47D breast = system: T-47D breast

CCOc1ccc(NC(=O)CC2Sc3ccccc3NC2=O)cc1 (stereo unspecified)
TGI (CAKI-1 renal): > 100 µM | TGI (NCI-H460 lung): > 100 µM | TGI (UACC-257 melanoma): > 100 µM | TGI (NCI-H23 lung): > 100 µM | TGI (ACHN renal): > 100 µM | TGI (SK-MEL-28 melanoma): > 100 µM

CSC1=NC=CCN1C
TGI (CAKI-1 renal): > 100 µM | TGI (NCI-H460 lung): > 100 µM | TGI (UACC-257 melanoma): > 100 µM | TGI (NCI-H23 lung): > 100 µM | TGI (ACHN renal): > 100 µM | TGI (SK-MEL-28 melanoma): > 100 µM

COC(=O)C(C#N)=C1c2ccccc2Oc2ccccc21
TGI (CAKI-1 renal): > 100 µM | TGI (NCI-H460 lung): > 100 µM | TGI (UACC-257 melanoma): > 100 µM | TGI (NCI-H23 lung): > 100 µM | TGI (ACHN renal): > 100 µM | TGI (SK-MEL-28 melanoma): > 100 µM

COC1O[C@H]2CCN(C(=O)OCc3ccccc3)[C@H]2[C@H]1OCc1ccccc1 (stereo partly specified)
TGI (CAKI-1 renal): > 100 µM | TGI (NCI-H460 lung): > 100 µM | TGI (UACC-257 melanoma): > 100 µM | TGI (NCI-H23 lung): > 90.5 µM | TGI (ACHN renal): > 100 µM | TGI (SK-MEL-28 melanoma): > 100 µM

CC(=O)[CH-]C(=O)c1ccccc1.CC(=O)[CH-]C(=O)c1ccccc1.CCCCCCCCCCCCCCCCCC(=O)[O-].CCCCCCCCCCCCCCCCCC(=O)[O-].[Ti+4]
GI50 (CAKI-1 renal): 19.8 µM | TGI (CAKI-1 renal): 39.9 µM | GI50 (NCI-H460 lung): 30.7 µM | TGI (NCI-H460 lung): 95.7 µM | GI50 (UACC-257 melanoma): 24.6 µM | TGI (UACC-257 melanoma): 68.5 µM | GI50 (NCI-H23 lung): 36.1 µM | TGI (NCI-H23 lung): > 100 µM | GI50 (SK-MEL-28 melanoma): 23.7 µM | TGI (SK-MEL-28 melanoma): 60.5 µM

Cn1cc(NC(=O)c2cc(NC(=O)CCCCCCCCCCC(=O)Nc3cc(C(=O)Nc4cc(C(=O)NCCC(=N)N)n(C)c4)n(C)c3)cn2C)cc1C(=O)NCCC(=N)N
TGI (CAKI-1 renal): > 100 µM | TGI (NCI-H460 lung): > 100 µM | TGI (UACC-257 melanoma): > 100 µM | TGI (NCI-H23 lung): > 100 µM | TGI (ACHN renal): > 100 µM

O=C(C#Cc1c[nH]c(=O)[nH]c1=O)c1ccccc1Cl
TGI (CAKI-1 renal): 31.3 µM | TGI (NCI-H460 lung): 67.7 µM | TGI (UACC-257 melanoma): 27.9 µM | TGI (NCI-H23 lung): 32.3 µM | TGI (ACHN renal): 33.1 µM | TGI (SK-MEL-28 melanoma): 32 µM

Cc1cc(=O)cc2sc3c(C)cccc3nc1-2
TGI (CAKI-1 renal): 83 µM | TGI (NCI-H460 lung): 57.6 µM | TGI (UACC-257 melanoma): > 100 µM | TGI (NCI-H23 lung): > 100 µM | TGI (ACHN renal): > 100 µM | TGI (SK-MEL-28 melanoma): > 100 µM

CCOC(=O)C1(CC)CCCCC(=O)N1 (stereo unspecified)
TGI (CAKI-1 renal): > 100 µM | TGI (NCI-H460 lung): > 100 µM | TGI (NCI-H23 lung): > 100 µM | TGI (ACHN renal): > 100 µM | TGI (SK-MEL-28 melanoma): > 100 µM

O=C1/C(=C/c2ccc(F)cc2)CCOc2ccc([N+](=O)[O-])cc21
GI50 (CAKI-1 renal): 2.08 µM | TGI (CAKI-1 renal): 4.73 µM | GI50 (MCF7 breast): 2.91 µM | TGI (MCF7 breast): 9.29 µM | GI50 (NCI-H460 lung): 17.4 µM | TGI (NCI-H460 lung): 34.9 µM | GI50 (UACC-257 melanoma): 2.62 µM | TGI (UACC-257 melanoma): 6.29 µM | GI50 (DU-145 prostate): 5.68 µM | TGI (DU-145 prostate): 18.1 µM | GI50 (MDA-MB-435): 1.94 µM | TGI (MDA-MB-435): 7.26 µM | GI50 (NCI-H23 lung): 1.95 µM | TGI (NCI-H23 lung): 4.51 µM | GI50 (ACHN renal): 28 µM | TGI (ACHN renal): 65.4 µM

CSc1nc(SC)c2c(CN=[N+]=[N-])c(Br)n(Cc3ccccc3)c2n1
TGI (CAKI-1 renal): > 100 µM | TGI (MCF7 breast): > 100 µM | TGI (NCI-H460 lung): > 100 µM | TGI (DU-145 prostate): > 100 µM | TGI (MDA-MB-435): > 100 µM | TGI (NCI-H23 lung): > 100 µM | TGI (ACHN renal): > 100 µM | TGI (SK-MEL-28 melanoma): > 100 µM | TGI (T-47D breast): > 100 µM

O=[N+]([O-])[C@@H]1C2C=CC(C2)[C@H]1Cl (stereo partly specified)
TGI (CAKI-1 renal): > 100 µM | TGI (NCI-H460 lung): > 100 µM | TGI (UACC-257 melanoma): > 100 µM | TGI (NCI-H23 lung): > 100 µM | TGI (ACHN renal): > 100 µM | TGI (SK-MEL-28 melanoma): > 100 µM

O=C(/C=C/c1ccc(Cl)cc1)c1ccc(Cl)cc1Cl
GI50 (CAKI-1 renal): 8.22 µM | TGI (CAKI-1 renal): 15.7 µM | GI50 (MCF7 breast): 6.28 µM | TGI (MCF7 breast): 23 µM | GI50 (NCI-H460 lung): 10.4 µM | TGI (NCI-H460 lung): 24.8 µM | GI50 (UACC-257 melanoma): 10.4 µM | TGI (UACC-257 melanoma): 18.5 µM | GI50 (DU-145 prostate): 7.72 µM | TGI (DU-145 prostate): 15.7 µM | GI50 (MDA-MB-435): 9.11 µM | TGI (MDA-MB-435): 24.3 µM | GI50 (NCI-H23 lung): 4.55 µM | TGI (NCI-H23 lung): 12.4 µM | GI50 (ACHN renal): 0.213 µM | TGI (ACHN renal): 10.9 µM | GI50 (T-47D breast): 3.25 µM | TGI (T-47D breast): 22.3 µM

N#Cc1c(-c2cccs2)c2c(=S)[nH]c(=S)[nH]c2[nH]c1=S
GI50 (CAKI-1 renal): 31.4 µM | TGI (CAKI-1 renal): > 100 µM | GI50 (NCI-H460 lung): 39.1 µM | TGI (NCI-H460 lung): 72.9 µM | GI50 (UACC-257 melanoma): 18 µM | TGI (UACC-257 melanoma): 81.3 µM | GI50 (DU-145 prostate): 24 µM | TGI (DU-145 prostate): 78.7 µM | GI50 (MDA-MB-435): 41.1 µM | TGI (MDA-MB-435): > 100 µM | GI50 (ACHN renal): 23.8 µM | TGI (ACHN renal): 67.6 µM | GI50 (SK-MEL-28 melanoma): 22.4 µM | TGI (SK-MEL-28 melanoma): > 100 µM | GI50 (T-47D breast): 28.1 µM | TGI (T-47D breast): 98.8 µM

CCOC(=O)C1=C(C)Nc2ccccc2S1
TGI (CAKI-1 renal): > 100 µM | TGI (NCI-H460 lung): > 100 µM | TGI (UACC-257 melanoma): > 100 µM | TGI (NCI-H23 lung): > 100 µM | TGI (ACHN renal): > 100 µM | TGI (SK-MEL-28 melanoma): > 100 µM

NC(N)=N/N=C(/c1ccccc1)c1ccc(F)cc1
GI50 (CAKI-1 renal): 0.404 µM | TGI (CAKI-1 renal): 16.1 µM | GI50 (MCF7 breast): 0.296 µM | TGI (MCF7 breast): 12.1 µM | GI50 (NCI-H460 lung): 0.342 µM | TGI (NCI-H460 lung): 10.8 µM | GI50 (UACC-257 melanoma): 2.94 µM | TGI (UACC-257 melanoma): 32.8 µM | GI50 (DU-145 prostate): 0.33 µM | TGI (DU-145 prostate): 4.15 µM | GI50 (MDA-MB-435): 0.203 µM | TGI (MDA-MB-435): 0.834 µM | GI50 (NCI-H23 lung): 0.403 µM | TGI (NCI-H23 lung): 8.94 µM | GI50 (ACHN renal): 0.75 µM | TGI (ACHN renal): 16.4 µM | GI50 (SK-MEL-28 melanoma): 0.528 µM | TGI (SK-MEL-28 melanoma): 23 µM

O=C1NC(c2ccc(O)cc2)C2CCC1C2 (stereo unspecified)
TGI (CAKI-1 renal): > 100 µM | TGI (NCI-H460 lung): > 100 µM | TGI (UACC-257 melanoma): > 100 µM | TGI (NCI-H23 lung): > 100 µM | TGI (ACHN renal): > 100 µM | TGI (SK-MEL-28 melanoma): > 100 µM

COc1cccc(/C=C/C(=O)c2cc3c(N)c(C(=O)Nc4ccccc4C)sc3nc2C)c1
GI50 (CAKI-1 renal): 1.66 µM | TGI (CAKI-1 renal): 5.75 µM | GI50 (MCF7 breast): 1.29 µM | TGI (MCF7 breast): 6.1 µM | GI50 (NCI-H460 lung): 1.1 µM | TGI (NCI-H460 lung): 2.53 µM | GI50 (UACC-257 melanoma): 1.21 µM | TGI (UACC-257 melanoma): 3.75 µM | GI50 (DU-145 prostate): 1.32 µM | TGI (DU-145 prostate): 4.08 µM | GI50 (MDA-MB-435): 1.07 µM | TGI (MDA-MB-435): 2.77 µM | GI50 (NCI-H23 lung): 1.76 µM | TGI (NCI-H23 lung): 8.93 µM | GI50 (ACHN renal): 0.894 µM | TGI (ACHN renal): 1.86 µM | GI50 (T-47D breast): 1.15 µM | TGI (T-47D breast): 3.63 µM

CCC(C)C1NC(=O)c2nc(oc2-c2ccccc2)-c2csc(n2)-c2csc(n2)-c2nc(oc2C)-c2coc(n2)CNC(=O)C(C(C)CC)NC1=O (stereo unspecified)
GI50 (CAKI-1 renal): 0.0371 µM | TGI (CAKI-1 renal): 0.151 µM | GI50 (NCI-H460 lung): 0.0102 µM | TGI (NCI-H460 lung): 0.0268 µM | GI50 (DU-145 prostate): 0.0218 µM | TGI (DU-145 prostate): 0.0658 µM | GI50 (MDA-MB-435): 0.0464 µM | TGI (MDA-MB-435): 0.163 µM | GI50 (NCI-H23 lung): 0.04 µM | TGI (NCI-H23 lung): 0.155 µM | GI50 (ACHN renal): 0.0188 µM | TGI (ACHN renal): 0.114 µM

O=C1CCCN(c2ccccc2)N1
TGI (CAKI-1 renal): > 100 µM | TGI (NCI-H460 lung): > 100 µM | TGI (UACC-257 melanoma): > 100 µM | TGI (ACHN renal): > 100 µM | TGI (SK-MEL-28 melanoma): > 100 µM

Cc1ccccc1C(C#N)C(=O)C(=O)Nc1nc([N+](=O)[O-])cs1 (stereo unspecified)
TGI (CAKI-1 renal): > 100 µM | TGI (NCI-H460 lung): > 100 µM | TGI (UACC-257 melanoma): > 100 µM | TGI (NCI-H23 lung): > 100 µM | TGI (ACHN renal): > 100 µM | TGI (SK-MEL-28 melanoma): > 100 µM

C=CCSC[C@H](NC(=O)COc1ccccc1)C(=O)NC(C(=O)OCc1ccc([N+](=O)[O-])cc1)=C(C)C
TGI (NCI-H460 lung): > 100 µM | TGI (UACC-257 melanoma): > 100 µM | TGI (ACHN renal): > 100 µM | TGI (SK-MEL-28 melanoma): > 100 µM
